The text below walks through data of patent US20220267329A1, “Dihydro-Spiro[Indoline-3:1'-Isoquinolin]-2-Ones and Their Analogues and Derivatives and Methods of Treating Cancer and Other Diseases” (The University of Buea, priority 2019, published 2022).

Molecules are shown by their SMILES.

The term inhibition denotes the change of the read-out against control, counted positive when it falls. Broadly, the melting point is the temperature, or range, at which the solid turns liquid.

Data set [1] relates to EMT6 breast cancer cell line. Put plainly: Antiproliferative screening on EMT6 cancer cells. To be noted: for activity at 100 µM: Mus musculus, EMT6, no ligand = 100, read-out: EMT6 cell proliferation (%). The format is cell-based. The method, then: Representative compounds were screened tested for antiproliferative activity on the EMT6 breast cancer cell line. Screening was carried out according to published procedures (Zeng et al., 2014). In this screen, compounds were tested at 100 μM concentration.

The next data set has as its system renal cancer cell lines. The data set can be described thus: NCI-60 screen, renal cell lines. It is filed as cell-based, human. To be noted: NCI-60 preliminary screening; for inhibition at 10 µM: Homo sapiens, read-out: Percent (%) Inhibition of Cancer Cell Line, Renal Cell. The method, then:
(§1) Screening for Anticancer Activity—The NCI-60 panel: Representative compounds of the invention were subjected to anticancer testing in the National Cancer Institute (NCI) 60 screen. In this screen compounds are tested on a panel of sixty human cancer cell lines chosen from the following cancers: leukemia, nonsmall cell lung cancer (NSCLC), colon, melanoma, central nervous system (CNS), ovarian, renal, prostate and breast. The assay method is found on the NCI website (dtp.cancer.gov/discovery_development/nci-60/methodology.htm). In the NCI-60 assay, test compounds undergo preliminary screening at 10 μM concentration. The data is reported as percent growth relative to “no drug” control; therefore values between 0 and 100% denote growth inhibition.

The test system of data set [2] is nonsmall cell lung cancer (NSCLC) cell lines. Put plainly: NCI-60 screen, NSCLC cell lines. It is filed as cell-based, human. To be noted: NCI-60 preliminary screening; for inhibition at 10 µM: Homo sapiens, read-out: Percent (%) Inhibition of Cancer Cell Line, NSCLC. The method, then: as §1
The subject of data set [3] is ovarian cancer cell lines. The data set can be described thus: NCI-60 screen, ovarian cell lines. The format is cell-based, human. To be noted: NCI-60 preliminary screening; for inhibition at 10 µM: Homo sapiens, read-out: Percent (%) Inhibition of Cancer Cell Line, Ovarian. As to the method:
as §1

In data set [4] the target is sphingosine-1-phosphate receptor 1 (S1PR1) (Homo sapiens, UniProt P21453). The data set can be described thus: Radioligand binding to sphingosine-1-phosphate receptor 1. To be noted: test compound 100 nM, 0.2 nM radioligand; read-out: % INHIBITION of binding to the SIP1 Receptor. The method, then: The binding of a representative group of compounds of this invention to sphingosine-1-phosphate receptor 1 (S1PR1) was determined by a published procedure (Rosenberg et al., 2016). In this assay, the test compound at 100 nM concentration was incubated with 0.2 nM radioligand. Active compounds or “hits” are defined as compounds that inhibit radioligand binding by 50% or more. […] This finding is significant because it establishes the 3′,4′-dihydro-2′H-[…]-2-one hybrid scaffold as an entirely new class of ligands for the sphingosine-1-phosphate receptors.
sphingosine-1-phosphate receptor 1 (S1PR1), sequence (P21453 whole entry, species assumed): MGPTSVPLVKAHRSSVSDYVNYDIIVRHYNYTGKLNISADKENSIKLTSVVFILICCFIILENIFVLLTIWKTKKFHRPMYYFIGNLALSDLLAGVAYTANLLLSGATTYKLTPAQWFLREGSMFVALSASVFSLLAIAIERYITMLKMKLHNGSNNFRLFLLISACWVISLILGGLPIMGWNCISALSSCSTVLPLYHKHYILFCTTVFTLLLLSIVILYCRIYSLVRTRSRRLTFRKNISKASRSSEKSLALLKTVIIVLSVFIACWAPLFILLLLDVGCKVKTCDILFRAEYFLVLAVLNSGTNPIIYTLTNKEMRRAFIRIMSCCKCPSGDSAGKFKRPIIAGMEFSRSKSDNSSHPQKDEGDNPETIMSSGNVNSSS

Data set [5] concerns prostate cancer cell lines. Put plainly: NCI-60 screen, prostate cell lines. It is filed as cell-based, human. To be noted: NCI-60 preliminary screening; for inhibition at 10 µM: Homo sapiens, Prostate cell, read-out: Percent (%) Inhibition of Cancer Cell Line, Prostate. The method, then: as §1
The subject of a further data set is breast cancer cell lines. Put plainly: NCI-60 screen, breast cell lines. The format is cell-based, human. To be noted: NCI-60 preliminary screening; for inhibition at 10 µM: Homo sapiens, read-out: Percent (%) Inhibition of Cancer Cell Line, Breast. The method, then: as §1
The next data set has as its system leukemia cell lines. The data set can be described thus: NCI-60 screen, leukemia cell lines. It is filed as cell-based. To be noted: Homo sapiens, NCI-60 preliminary screening, read-out: Percent (%) Inhibition of Cancer Cell Line, Leukemia. The method, then: as §1
In data set [6] the test system is central nervous system (CNS) cancer cell lines. Put plainly: NCI-60 screen, CNS cell lines. To be noted: Homo sapiens, NCI-60 preliminary screening, read-out: Percent (%) Inhibition of Cancer Cell Line, CNS. It is filed as cell-based. The method, then: as §1
Data set [7] relates to panel of sixty human cancer cell lines. The data set can be described thus: NCI-60 screen, whole panel. The format is cell-based. To be noted: 10 μM. The method, then:
as §1

The test system of the next data set is melanoma cell lines. Put plainly: NCI-60 screen, melanoma cell lines. It is filed as cell-based. To be noted: Homo sapiens, NCI-60 preliminary screening, read-out: Percent (%) Inhibition of Cancer Cell Line, Melanoma. As to the method:
as §1

In the case of `O=C1Nc2ccccc2C12NCCc1cccc(O)c12` (centres unmarked) [Compound 1a, 8′-Hydroxy-3′,4′-dihydro-2′H-spiro[indoline-3,1′-isoquinolin]-2-one], the activity at 100 µM in [1] amounted to 104%. The values for the inhibition at 10 µM (in the data set on renal cancer cell lines; in data set [2]; in [3]) were 14%, 15% and 10%, respectively.

Turning to `O=C1N(Cc2ccc(F)cc2)c2ccccc2C12NCCc1cccc(O)c12` (centres unmarked) [Compound 1d, 1-(4-Fluorobenzyl)-8′-hydroxy-3′,4′-dihydro-2H-spiro[indoline-3,1′-isoquinolin]-2-one], the melting point fell in the range of 119 to 121 °C. The activity at 100 µM in [1] was determined as 120%. In data set [4], the inhibition at 0.1 µM was not below 50%.

Turning to `O=C1N(Cc2ccc(Cl)cc2)c2ccccc2C12NCCc1cccc(O)c12` (centres unmarked) [Compound 1e, 1-(4-Chlorobenzyl)-8′-hydroxy-3′,4°-dihydro-2′H-spiro[indoline-3,1′-isoquinolin]-2-one], in data set [1] (100 μM, no ligand = 100), the “EMT6 cell proliferation (%)” value is listed as 77.91%. Further, the “Percent (%) Inhibition of Cancer Cell Line, Renal Cell” value in the data set on renal cancer cell lines (10 μM) is listed as 35%. Moreover, in data set [2] (10 μM), the “Percent (%) Inhibition of Cancer Cell Line, NSCLC” value is 30%. The “Percent (%) Inhibition of Cancer Cell Line, Prostate” value in data set [5] (10 μM) is 14%. Besides, in [3] (10 μM), the “Percent (%) Inhibition of Cancer Cell Line, Ovarian” value was determined as 14%. In addition, in the data set with breast cancer cell lines (10 μM), the “Percent (%) Inhibition of Cancer Cell Line, Breast” value came out at 12%.

For `O=C1N(Cc2ccc(Cl)c(Cl)c2)c2ccccc2C12NCCc1cccc(O)c12` (centres unmarked) [Compound 1g, 1-(3,4-Dichlorobenzyl)-8′-hydroxy-3′,4′-dihydro-2′H-spiro[indoline-3,1′-isoquinolin]-2-one], the melting point was in the range of 109 to 113 °C. In data set [1], the activity at 100 µM was 91.1%.

Consider `O=C1N(Cc2ccc(Cl)c(Cl)c2)c2ccccc2C12NCCc1cc(O)ccc12` (centres unmarked) [Compound 2g, 1-(3,4-Dichlorobenzyl)-6′-hydroxy-3′,4′-dihydro-2′H-spiro[indoline-3,1′-isoquinolin]-2-one], for which, in [1] (100 μM), the “inhibition of EMT6 cell proliferation” value is “as much as fifty percent”. In addition, the activity at 100 µM in data set [1] was 56.5%. Further, the inhibition at 10 µM in the data set on renal cancer cell lines is 22 to 36%; in data set [2], 25%; in data set [5], 19%; in the data set with leukemia cell lines, 19%; with breast cancer cell lines, 13%.

Consider `COc1ccc2c(c1)CCNC21C(=O)Nc2ccccc21` (centres unmarked) [Compound 4a, 6′-Methoxy-3′,4′-dihydro-2′H-spiro[indoline-3,1′-isoquinolin]-2-one], for which the inhibition at 10 µM (in the data set with renal cancer cell lines; in data set [6]) was 20% throughout. The inhibition at 0.1 µM in [4] worked out at 36.2%.

Turning to `COc1ccc2c(c1)CCNC21C(=O)N(Cc2ccc(C)cc2)c2ccccc21` (centres unmarked) [Compound 4e, 6′-Methoxy-1-(4-methylbenzyl)-3′,4′-dihydro-2′H-spiro[indoline-3,1′-isoquinolin]-2-one], the inhibition at 10 µM was 30 to 46% in the data set on renal cancer cell lines, 25 to 28% in data set [2] and 25 to 30% in the data set on breast cancer cell lines. In addition, in data set [4], the inhibition at 0.1 µM came out at 38.1%. Moreover, the “antiproliferative activity in the NCI-60 panel” value (“antiproliferative activity” for short) in data set [7] is recorded as “most potent analogues”.

With `COc1cc2c(cc1OC)C1(NCC2)C(=O)Nc2ccc(Cl)cc21` (centres unmarked) [Compound 5b, 5-Chloro-6′,7′-dimethoxy-3′,4′-dihydro-2′H-spiro[indoline-3,1′-isoquinolin]-2-one], the values for the inhibition at 10 µM (with renal cancer cell lines; in data set [6]) were 22% and 32%, respectively. Further, the inhibition at 0.1 µM in data set [4] was not below 50%.

`COc1cc2c(cc1OC)C1(NCC2)C(=O)Nc2c(Br)cc(Br)cc21` (centres unmarked) [Compound 5c, 5,7-dibromo-6′,7′-dimethoxy-3′,4′-dihydro-2′H-spiro[indoline-3,1′-isoquinolin]-2-one]: the inhibition at 10 µM with renal cancer cell lines was 27 to 35%; in data set [6], 25%; in the data set with leukemia cell lines, 24%. For the same compound, the inhibition at 0.1 µM in data set [4] was found to be 37.6%.

For the compound `COc1cc2c(cc1OC)C1(NCC2)C(=O)N(Cc2ccc(C)cc2)c2ccccc21` (centres unmarked) [Compound 5e, 6′,7′-Dimethoxy-1-(4-methylbenzyl)-3′,4′-dihydro-2′H-spiro[indoline-3,1′-isoquinolin]-2-one], the inhibition at 10 µM in the data set with renal cancer cell lines is 25%; in data set [5] it was 42%; in the data set on leukemia cell lines it was 24 to 48%; with breast cancer cell lines, 22 to 24%. Also, the inhibition at 0.1 µM in data set [4] turned out to be 32.4%. Also, in data set [7], the “antiproliferative activity” value is listed as “most potent analogues”.

Take `COc1cc2c(cc1OC)C1(NCC2)C(=O)N(Cc2ccc(Br)cc2)c2ccc(Cl)cc21` (centres unmarked) [Compound 5f, 1-(4-Bromobenzyl)-5-chloro-6′,7′-dimethoxy-3′,4′-dihydro-2′H-spiro[indoline-3,1′-isoquinolin]-2-one]: the “antiproliferative activity” value in data set [7] is on record as “most potent analogues”. The inhibition at 10 µM in [5] is 52%; with melanoma cell lines, 44%; in the data set on leukemia cell lines, 38 to 55%; in [3], 39%; in the data set on breast cancer cell lines it was 27 to 36%.

Regarding `COc1cc2c(c(OC)c1OC)C1(NCC2)C(=O)Nc2ccc(Cl)cc21` (centres unmarked) [Compound 6b, 5-Chloro-6′,7′,8′-trimethoxy-3′,4′-dihydro-2′H-spiro[indoline-3,1′-isoquinolin]-2-one], the results for the inhibition at 10 µM (in the data set with renal cancer cell lines; in [2]; in [3]) were 28 to 31%, 20% and 20%, respectively. Besides, the inhibition at 0.1 µM in data set [4] worked out at 41.1%.
